Source: patent US20250339569A1, “CARBONIC ANHYDRASE IX LIGANDS” (priority 2021, published 2025)
Where two headings read alike, the source gives them in different places. Starred links: 1 amine or outer side, 2 acyl side, 3 side chain; linkers in the order of their positions; H or OH if unused. Positions of bridges follow the written chain, without caps; N, C: chain ends. Non-standard residues stand in square brackets, D forms with d. Residues, ends and D or L forms follow the SMILES beside them. *: point of attachment. X35 = CC(=O)N[C@@H](CCC(=O)Nc1cccc(C[C@H](N[*:1])C(=O)[*:2])c1)C(=O)O; X38 = O=C(Cc1cc(=O)[nH][nH]c1=O)Nc1cccc(C[C@H](N[*:1])C(=O)[*:2])c1; X30 = Cn1ncc(C(=O)Nc2cccc(C[C@H](N[*:1])C(=O)[*:2])c2)c1C#N; X34 = O=C(CCc1nc[nH]n1)Nc1cccc(C[C@H](N[*:1])C(=O)[*:2])c1; DOTA = O=C(O)CN1CCN(CC(=O)O)CCN(CC(=O)*)CCN(CC(=O)O)CC1; X7 = O=C([C@H](Cc1cccc(N[*:3])c1)N[*:1])[*:2]; Phe(4-NH2) = Nc1ccc(C[C@H](N)C(=O)O)cc1; mXylylene = c1cc(C[*:1])cc(C[*:2])c1; NH(4-Cl-benzyl) = Clc1ccc(CN*)cc1; X13 = O=C1NC2NC(=O)N(CC(=O)*)C2N1; X2 = O=C(CN1CCC(N[*:1])CC1)[*:2]; Suc = O=C(CCC(=O)[*:2])[*:1]; 4Amb = NCc1ccc(C(=O)O)cc1; Dap = NC[C@H](N)C(=O)O; GABA = NCCCC(=O)O

How the values were obtained:
[1] = molecular target: T1, human carbonic anhydrase IX (hCAIX-Fc) (Homo sapiens, UniProt Q16790); test: Surface plasmon resonance assay with hCAIX-Fc; assay type: binding; settings: 25° C.; for t1/2 category (activity): SPR dissociation half-life, hCAIX-Fc; for Kd: SPR, hCAIX-Fc captured, read-out: pKD category (activity) (converted)
T1 construct: purchased SinoBliological (Sino Biological) 10107-H02H

[2] = molecular target: T2, CAIX-expressing human HT-29 colorectal cancer cells (Homo sapiens, UniProt Q16790); test: FACS binding assay (IC50 determination, competition with tracer 3BP-2776 or 3BP-4149); settings: FACS binding assay, HT-29 cells, 4° C., 1 hour, read-out: pIC50 category (activity) (converted)
T2 construct: CAIX-expressing human HT-29 colorectal cancer cells; host or cells: HT-29 human colorectal cancer cells
Procedure, shortened: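 HT-29 cells in FACS buffer (PBS, 1% FCS) at 500.000 cells/ml were exposed to compounds competing with a labelled tracer, with biotinylated compounds detected by 1 μg/mL APC-streptavidin for 30 min on ice. APC/Cy5 median fluorescence was read by flow cytometry and IC50 derived by 4PL fit.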

[3] = competition with tracer 3BP-4149 (3 nM, Cy5-labeled)

t1/2 category (activity) [1]	Kd [1]	IC50 ([2]; competition with tracer 3BP-2776 (10 nM, biotin-labeled))	IC50 [2, 3]	SMILES
C (t1/2 between 2.1 and 5.0 minutes)	< 10 nM	< 10 nM	–	CC(C)C[C@@H]1NC(=O)[C@H](Cc2c[nH]c3ccccc23)NC(=O)[C@H](CC(=O)O)NC(=O)[C@H]2CCCN2C(=O)[C@H](CCC(=O)O)NC(=O)[C@@H]2CSCc3cccc(c3)CSC[C@@H](C(N)=O)NC(=O)[C@H](CNC(=O)C[C@H](NC(=O)c3ccc(CNC(=O)CN4CCN(CC(=O)O)CCN(CC(=O)O)CCN(CC(=O)O)CC4)cc3)C(=O)N2)NC(=O)[C@H](Cc2c[nH]c3ccccc23)NC(=O)[C@H]([C@@H](C)O)NC1=O [3BP-4261] ({DOTA-4Amb}-DCE[dP]DWLTW[Dap]C-NH2; lactam 1-10; linker 2-11 via mXylylene)
C (t1/2 between 2.1 and 5.0 minutes)	< 10 nM	–	< 10 nM	CC(C)C[C@@H]1NC(=O)[C@H](Cc2c[nH]c3ccccc23)NC(=O)[C@H](CC(=O)O)NC(=O)[C@H]2CCCN2C(=O)[C@H](CCC(=O)O)NC(=O)[C@@H]2CSCc3cccc(c3)CSC[C@@H](C(N)=O)NC(=O)[C@H](CNC(=O)C[C@H](NC(=O)CCCNC(=O)CN3CCN(CC(=O)O)CCN(CC(=O)O)CCN(CC(=O)O)CC3)C(=O)N2)NC(=O)[C@H](Cc2c[nH]c3ccccc23)NC(=O)[C@H]([C@@H](C)O)NC1=O [3BP-4263] ({DOTA-GABA}-DCE[dP]DWLTW[Dap]C-NH2; lactam 1-10; linker 2-11 via mXylylene)
D (t1/2≤2.0 minutes)	10 to 79.4 nM	–	10 to 79.4 nM	CC(C)C[C@@H]1NC(=O)[C@H](Cc2cccc(NC(=O)c3cnn(C)c3C#N)c2)NC(=O)[C@H](CC(=O)O)NC(=O)[C@H]2CCCN2C(=O)[C@H](CCC(=O)O)NC(=O)[C@@H](NC(=O)[C@H](Cc2ccc(O)cc2)NC(=O)[C@@H](NC(=O)CN2CCC(NC(=O)CN3CCN(CC(=O)O)CCN(CC(=O)O)CCN(CC(=O)O)CC3)CC2)C(C)C)CSCc2cccc(c2)CSC[C@@H](C(N)=O)NC(=O)[C@H](CO)NC(=O)[C@H](Cc2c[nH]c3ccccc23)NC(=O)[C@H]([C@@H](C)O)NC1=O [3BP-4305] ({DOTA}-[X2]VYCE[dP]D[X30]LTWSC-NH2; linker 4-13 via mXylylene)
A (t1/2>15.0 minutes)	< 10 nM	–	10 to 79.4 nM	CC(C)C[C@@H]1NC(=O)[C@H](Cc2cccc(NC(=O)CCc3nc[nH]n3)c2)NC(=O)[C@H](CC(=O)O)NC(=O)[C@H]2CCCN2C(=O)[C@H](CCC(=O)O)NC(=O)[C@@H](NC(=O)[C@H](Cc2ccc(O)cc2)NC(=O)[C@@H](NC(=O)CN2CCC(NC(=O)CN3CCN(CC(=O)O)CCN(CC(=O)O)CCN(CC(=O)O)CC3)CC2)C(C)C)CSCc2cccc(c2)CSC[C@@H](C(N)=O)NC(=O)[C@H](CO)NC(=O)[C@H](Cc2c[nH]c3ccccc23)NC(=O)[C@H]([C@@H](C)O)NC1=O [3BP-4324] ({DOTA}-[X2]VYCE[dP]D[X34]LTWSC-NH2; linker 4-13 via mXylylene)
C (t1/2 between 2.1 and 5.0 minutes)	< 10 nM	–	10 to 79.4 nM	CC(C)C[C@@H]1NC(=O)[C@H](Cc2cccc(NC(=O)CN3C(=O)NC4NC(=O)NC43)c2)NC(=O)[C@H](CC(=O)O)NC(=O)[C@H]2CCCN2C(=O)[C@H](CCC(=O)O)NC(=O)[C@@H](NC(=O)[C@H](Cc2ccc(O)cc2)NC(=O)[C@@H](NC(=O)CN2CCC(NC(=O)CN3CCN(CC(=O)O)CCN(CC(=O)O)CCN(CC(=O)O)CC3)CC2)C(C)C)CSCc2cccc(c2)CSC[C@@H](C(N)=O)NC(=O)[C@H](CO)NC(=O)[C@H](Cc2c[nH]c3ccccc23)NC(=O)[C@H]([C@@H](C)O)NC1=O (stereo partly drawn) [3BP-4341] ({DOTA}-[X2]VYCE[dP]D[X7](X13)LTWSC-NH2; linker 4-13 via mXylylene)

Continued, compound first:

SMILES	t1/2 category (activity) [1]	Kd [1]	IC50 ([2]; competition with tracer 3BP-2776 (10 nM, biotin-labeled))	IC50 [2, 3]
CC(C)C[C@@H]1NC(=O)[C@H](Cc2cccc(NC(=O)C[C@@H]3NC(=O)CNC3=O)c2)NC(=O)[C@H](CC(=O)O)NC(=O)[C@H]2CCCN2C(=O)[C@H](CCC(=O)O)NC(=O)[C@@H](NC(=O)[C@H](Cc2ccc(O)cc2)NC(=O)[C@@H](NC(=O)CN2CCC(NC(=O)CN3CCN(CC(=O)O)CCN(CC(=O)O)CCN(CC(=O)O)CC3)CC2)C(C)C)CSCc2cccc(c2)CSC[C@@H](C(N)=O)NC(=O)[C@H](CO)NC(=O)[C@H](Cc2c[nH]c3ccccc23)NC(=O)[C@H]([C@@H](C)O)NC1=O [3BP-4288]	D (t1/2≤2.0 minutes)	10 to 79.4 nM	–	100 to 794 nM
CC(C)C[C@@H]1NC(=O)[C@H](Cc2cccc(NC(=O)Cc3cc(=O)[nH][nH]c3=O)c2)NC(=O)[C@H](CC(=O)O)NC(=O)[C@H]2CCCN2C(=O)[C@H](CCC(=O)O)NC(=O)[C@@H](NC(=O)[C@H](Cc2ccc(O)cc2)NC(=O)[C@@H](NC(=O)CN2CCC(NC(=O)CN3CCN(CC(=O)O)CCN(CC(=O)O)CCN(CC(=O)O)CC3)CC2)C(C)C)CSCc2cccc(c2)CSC[C@@H](C(N)=O)NC(=O)[C@H](CO)NC(=O)[C@H](Cc2c[nH]c3ccccc23)NC(=O)[C@H]([C@@H](C)O)NC1=O [3BP-4322] ({DOTA}-[X2]VYCE[dP]D[X38]LTWSC-NH2; linker 4-13 via mXylylene)	B (t1/2 between 5.1 and 15.0 minutes)	< 10 nM	–	10 to 79.4 nM
CC(C)C[C@@H]1NC(=O)[C@H](Cc2c[nH]c3ccccc23)NC(=O)[C@H](CCC(=O)NCc2ccc(Cl)cc2)NC(=O)[C@H]2CCCN2C(=O)[C@H](CCC(=O)O)NC(=O)[C@@H](NC(=O)[C@H](Cc2ccc(O)cc2)NC(=O)[C@@H](NC(=O)CN2CCC(NC(=O)CN3CCN(CC(=O)O)CCN(CC(=O)O)CCN(CC(=O)O)CC3)CC2)C(C)C)CSCc2cccc(c2)CSC[C@@H](C(N)=O)NC(=O)[C@H](CO)NC(=O)[C@H](Cc2c[nH]c3ccccc23)NC(=O)[C@H]([C@@H](C)O)NC1=O [3BP-4334] ({DOTA}-[X2]VYCE[dP]E(NH(4-Cl-benzyl))WLTWSC-NH2; linker 4-13 via mXylylene)	A (t1/2>15.0 minutes)	< 10 nM	–	10 to 79.4 nM
CC(C)C[C@@H]1NC(=O)[C@H](Cc2ccc(NC(=O)CCC(=O)O)cc2)NC(=O)[C@H](CC(=O)O)NC(=O)[C@H]2CCCN2C(=O)[C@H](CCC(=O)O)NC(=O)[C@@H](NC(=O)[C@H](Cc2ccc(O)cc2)NC(=O)[C@@H](NC(=O)CN2CCC(NC(=O)CN3CCN(CC(=O)O)CCN(CC(=O)O)CCN(CC(=O)O)CC3)CC2)C(C)C)CSCc2cccc(c2)CSC[C@@H](C(N)=O)NC(=O)[C@H](CO)NC(=O)[C@H](Cc2c[nH]c3ccccc23)NC(=O)[C@H]([C@@H](C)O)NC1=O [3BP-4356] ({DOTA}-[X2]VYCE[dP]D[Phe(4-NH2)](Suc)LTWSC-NH2; linker 4-13 via mXylylene)	D (t1/2≤2.0 minutes)	10 to 79.4 nM	–	10 to 79.4 nM
CC(=O)N[C@@H](CCC(=O)Nc1cccc(C[C@@H]2NC(=O)[C@H](CC(=O)O)NC(=O)[C@H]3CCCN3C(=O)[C@H](CCC(=O)O)NC(=O)[C@@H](NC(=O)[C@H](Cc3ccc(O)cc3)NC(=O)[C@@H](NC(=O)CN3CCC(NC(=O)CN4CCN(CC(=O)O)CCN(CC(=O)O)CCN(CC(=O)O)CC4)CC3)C(C)C)CSCc3cccc(c3)CSC[C@@H](C(N)=O)NC(=O)[C@H](CO)NC(=O)[C@H](Cc3c[nH]c4ccccc34)NC(=O)[C@H]([C@@H](C)O)NC(=O)[C@H](CC(C)C)NC2=O)c1)C(=O)O [3BP-4361] ({DOTA}-[X2]VYCE[dP]D[X35]LTWSC-NH2; linker 4-13 via mXylylene)	A (t1/2>15.0 minutes)	< 10 nM	–	10 to 79.4 nM
